Ki data for 6 compounds are collected here from ChEMBL document CHEMBL1152097, “Preparation of neurotensin analogs with a novel pro-tyr replacement” (Bioorg Med Chem Lett, 1995).

Bounds are passed on as bounds.

Neurotensin receptor type 1, sequence (P20789 whole entry): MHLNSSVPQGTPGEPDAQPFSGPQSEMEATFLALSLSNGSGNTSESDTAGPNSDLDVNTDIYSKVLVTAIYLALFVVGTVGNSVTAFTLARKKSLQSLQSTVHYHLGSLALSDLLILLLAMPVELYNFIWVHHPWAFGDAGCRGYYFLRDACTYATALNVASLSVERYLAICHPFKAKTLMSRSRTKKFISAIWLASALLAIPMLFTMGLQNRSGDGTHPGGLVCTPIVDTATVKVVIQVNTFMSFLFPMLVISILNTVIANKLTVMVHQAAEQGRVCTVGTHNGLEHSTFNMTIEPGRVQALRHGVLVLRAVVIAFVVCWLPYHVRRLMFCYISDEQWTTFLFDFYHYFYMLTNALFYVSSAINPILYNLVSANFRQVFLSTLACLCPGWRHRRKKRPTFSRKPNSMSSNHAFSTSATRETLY

This test has as its target Neurotensin receptor type 1 (Rattus norvegicus, UniProt P20789). The test can be described thus: Tested for binding affinity against Neurotensin receptor.
In general, Ki refers to a measure of affinity in units of concentration, obtained from inhibition or displacement. In turn, `CC[C@H](C)[C@H](NC(=O)N(Cc1ccc(F)cc1)c1cccc(NC(=O)[C@H](CCCCN)NC(=O)OC(C)(C)C)c1)C(=O)N[C@@H](CC(C)C)C(=O)O` showed an inhibition constant (Ki) of 890 nM. In the case of `CC[C@H](C)[C@H](NC(=O)N(Cc1ccc(O)cc1)c1cccc(NC(=O)[C@H](CCCCN)NC(=O)OC(C)(C)C)c1F)C(=O)N[C@@H](CC(C)C)C(=O)O`, the Ki came out at 2200 nM.

In turn, `CC[C@H](C)[C@H](NC(=O)N(Cc1ccc(O)cc1)c1cccc(NC[C@H](CCCCN)NC(=O)OC(C)(C)C)c1)C(=O)N[C@@H](CC(C)C)C(=O)O` registered a Ki of 730 nM. Take `CC[C@H](C)[C@H](NC(=O)[C@H](Cc1ccc(O)cc1)c1cccc(NC(=O)[C@H](CCCCN)NC(=O)OC(C)(C)C)c1)C(=O)N[C@@H](CC(C)C)C(=O)O`: the affinity corresponds to a Ki of 29 nM.

For the compound `CC[C@H](C)[C@H](NC(=O)N(Cc1ccc(O)cc1)c1cccc(NC(=O)[C@H](CCCCN)NC(=O)OC(C)(C)C)c1)C(=O)N[C@@H](CC(C)C)C(=O)O`, affinity was put at a Ki of 1250 nM. Compound `CC[C@H](C)[C@H](NC(=O)N(Cc1ccc(O)cc1)c1ccc(F)c(NC(=O)[C@H](CCCCN)NC(=O)OC(C)(C)C)c1)C(=O)N[C@@H](CC(C)C)C(=O)O` came in with a Ki greater than 10000 nM.
